These results are taken from US12528815B2, “5-amino-8-(4-pyridyl)-[1,2,4]triazolo[4,3-c]pyrimidin-3-one compounds for use against cancer” (Nxera Pharma UK Limited, priority 2020, dated 2026).

In assay [1] the target is T1, human adenosine A1 receptor (Homo sapiens, UniProt P30542).
T1 construct: expressed in transfected cells; host or cells: HEK293 cells infected with BacMam (the same paragraph also labels the preparation CHO-hA1)
T1 sequence (P30542 1-326): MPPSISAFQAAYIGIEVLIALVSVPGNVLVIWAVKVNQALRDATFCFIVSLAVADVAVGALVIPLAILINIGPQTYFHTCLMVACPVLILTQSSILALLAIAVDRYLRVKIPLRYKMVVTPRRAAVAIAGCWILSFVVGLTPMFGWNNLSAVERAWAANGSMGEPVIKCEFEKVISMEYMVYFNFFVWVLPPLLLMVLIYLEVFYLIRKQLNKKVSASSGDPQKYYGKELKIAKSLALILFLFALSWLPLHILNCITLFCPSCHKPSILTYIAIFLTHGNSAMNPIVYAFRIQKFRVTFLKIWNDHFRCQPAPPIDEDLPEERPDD
The experiment in a line: Inhibition binding assay, human adenosine A1 receptor membranes, [3H]DPCPX. The following applies: 1 nM [3H]DPCPX, 25° C., 1 h; IC50 converted to Ki with Cheng-Prusoff; read-out: A1 pKi (converted). A digest of the protocol: (§1)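 Membranes from BacMam-infected HEK293 cells (0.2 μg A2A, 1.4 μg A1) incubated 1 h at 25° C with test compound and 1 nM [3H]ZM241385 (A2A; 50 mM Tris-HCl pH 7.4) or [3H]DPCPX (A1; plus 100 mM NaCl, 10 mM MgCl2). Nonspecific: 1 μM CGS15943 or DPCPX. Filtration, scintillation; IC50 converted to Ki via Cheng-Prusoff.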

Assay [2] concerns the target T2, human adenosine A2A receptor (Homo sapiens, UniProt P29274).
T2 construct: expressed in transfected cells; host or cells: HEK293 cells infected with BacMam
Nature of the assay: Inhibition binding assay, human adenosine A2A receptor membranes, [3H]ZM241385. The following applies: 1 nM [3H]ZM241385, HEK293-hA2A membranes, 25° C., 1 h; IC50 converted to Ki with Cheng-Prusoff; read-out: A2A pKi (converted). An outline of the steps: as §1

Where only a bound is given, the exact number is not on record here.

T2 sequence (P29274 whole entry): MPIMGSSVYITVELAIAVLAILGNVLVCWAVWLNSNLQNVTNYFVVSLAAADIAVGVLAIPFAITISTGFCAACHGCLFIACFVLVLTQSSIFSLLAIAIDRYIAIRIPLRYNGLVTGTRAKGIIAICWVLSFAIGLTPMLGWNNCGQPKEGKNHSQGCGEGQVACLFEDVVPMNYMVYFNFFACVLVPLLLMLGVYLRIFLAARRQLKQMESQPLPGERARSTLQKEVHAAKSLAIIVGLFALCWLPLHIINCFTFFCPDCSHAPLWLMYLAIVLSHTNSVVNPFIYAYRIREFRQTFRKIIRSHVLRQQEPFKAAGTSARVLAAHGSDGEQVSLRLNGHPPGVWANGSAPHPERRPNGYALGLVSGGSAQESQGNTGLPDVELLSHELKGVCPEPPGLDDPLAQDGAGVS

With `Cc1cc(-c2c(-c3ccccc3)nc(N)n3c(=O)n(C[C@H]4CN(C(=O)OC(C)(C)C)CCO4)nc23)cc(C)n1` [Example 2-65, tert-butyl (R)-2-((5-amino-8-(2,6-dimethylpyridin-4-yl)-3-oxo-7-phenyl-[1,2,4]triazolo[4,3-c]pyrimidin-2(3H)-yl)methyl)morpholine-4-carboxylate], the values for the Ki in assay [1] and in assay [2] were 501 nM and 12.6 nM, respectively.
As for `Cc1cc(-c2c(-c3ccc(F)cc3)nc(N)n3c(=O)n(CCC(F)(F)F)nc23)cc(Cl)n1` [Example 2-50, 5-amino-8-(2-chloro-6-methyl-4-pyridyl)-7-(4-fluorophenyl)-2-(3,3,3-trifluoropropyl)-[1,2,4]triazolo[4,3-c]pyrimidin-3-one], the results for the Ki in assay [1] and in assay [2] were 79.4 nM and 0.794 nM, respectively.
For `COc1cccc(Cn2nc3c(-c4cc(C)nc(C)c4)c(-c4ccccc4)nc(N)n3c2=O)n1` [Example 1-6, 5-amino-8-(2,6-dimethyl-4-pyridyl)-2-[(6-methoxy-2-pyridyl)methyl]-7-phenyl-[1,2,4]triazolo[4,3-c]pyrimidin-3-one], the Ki in assay [1] was 200 nM; in assay [2] it was 0.794 nM.
With `Cc1cc(-c2c(-c3ccc(F)cc3F)nc(N)n3c(=O)n(CCC(F)(F)F)nc23)cc(C)n1` [Example 2-34, 5-amino-7-(2,4-difluorophenyl)-8-(2,6-dimethyl-4-pyridyl)-2-(3,3,3-trifluoropropyl)-[1,2,4]triazolo[4,3-c]pyrimidin-3-one], the Ki is above 3980 nM in assay [1] and 15.8 nM in assay [2].
`Cc1cc(-c2c(-c3ccccc3)nc(N)n3c(=O)n(CC45CC(C4)C5)nc23)cc(CO)n1` [Example 2-63, 5-amino-2-(3-bicyclo[1.1.1]pentanylmethyl)-8-[2-(hydroxymethyl)-6-methyl-4-pyridyl]-7-phenyl-[1,2,4]triazolo[4,3-c]pyrimidin-3-one]: the Ki in assay [1] was 316 nM; in assay [2], 1.26 nM.
For `Cc1cc(-c2c(-c3ccccc3)nc(N)n3c(=O)n(CC45C6C7C8C6C4C8C75)nc23)cc(CO)n1` (stereo not shown) [Example 2-62, 5-amino-2-(cuban-1-ylmethyl)-8-[2-(hydroxymethyl)-6-methyl-4-pyridyl]-7-phenyl-[1,2,4]triazolo[4,3-c]pyrimidin-3-one] the same measures were 31.6 nM and 0.316 nM.
For the compound `Cc1cc(-c2c(-c3ccccc3)nc(N)n3c(=O)n(C(CN)Cc4ccc(F)cc4F)nc23)cc(C)n1` (stereo not shown) [Example 1-100, 5-amino-2-[1-(aminomethyl)-2-(2,4-difluorophenyl)ethyl]-8-(2,6-dimethyl-4-pyridyl)-7-phenyl-[1,2,4]triazolo[4,3-c]pyrimidin-3-one], the Ki was 316 nM in assay [1] and 158 nM in assay [2].
For `Cc1cc(-c2c(-c3ccccc3)nc(N)n3c(=O)n(Cc4ccc(F)c(O)n4)nc23)cc(CO)n1` [Example 1-48, 5-amino-2-[(5-fluoro-6-hydroxy-2-pyridyl)methyl]-8-[2-(hydroxymethyl)-6-methyl-4-pyridyl]-7-phenyl-[1,2,4]triazolo[4,3-c]pyrimidin-3-one] the same measures were above 2510 nM and 10 nM.
In the case of `Cc1cc(-c2c(-c3ccccc3)nc(N)n3c(=O)n(Cc4ccccc4SC(F)F)nc23)cc(C)n1` [Example 1-16, 5-amino-2-[[2-(difluoromethylsulfanyl)phenyl]methyl]-8-(2,6-dimethyl-4-pyridyl)-7-phenyl-[1,2,4]triazolo[4,3-c]pyrimidin-3-one], the Ki in assay [1] was 1 nM; in assay [2], 0.251 nM.
For `Cc1cc(-c2c(N3CCCCC3)nc(N)n3c(=O)n(CCC(F)(F)F)nc23)cc(C)n1` [Example 3-2, 5-amino-8-(2,6-dimethyl-4-pyridyl)-7-(1-piperidyl)-2-(3,3,3-trifluoropropyl)-[1,2,4]triazolo[4,3-c]pyrimidin-3-one], the Ki in assay [1] was above 3160 nM; in assay [2] it was 6.31 nM.
Consider `Cc1cc(-c2c(-c3ccccc3)nc(N)n3c(=O)n(C(C)c4cccnc4)nc23)cc(C)n1` (stereo not shown) [Example 1-27, 5-amino-8-(2,6-dimethyl-4-pyridyl)-7-phenyl-2-[1-(3-pyridyl)ethyl]-[1,2,4]triazolo[4,3-c]pyrimidin-3-one], for which the Ki was 251 nM in assay [1] and 10 nM in assay [2].
The corresponding values for `Cc1cc(-c2c(-c3ccccc3)nc(N)n3c(=O)n(CCc4ccc(O)cc4)nc23)cc(C)n1` [Example 1-82, 5-amino-8-(2,6-dimethyl-4-pyridyl)-2-[2-(4-hydroxyphenyl)ethyl]-7-phenyl-[1,2,4]triazolo[4,3-c]pyrimidin-3-one] are 251 nM and 12.6 nM.
For `Cc1ccc(NC2CCN(CCn3nc4c(-c5cc(C)nc(C)c5)c(-c5ccccc5)nc(N)n4c3=O)CC2)nc1` [Example 1-97, 5-amino-8-(2,6-dimethyl-4-pyridyl)-2-[2-[4-[(5-methyl-2-pyridyl)amino]-1-piperidyl]ethyl]-7-phenyl-[1,2,4]triazolo[4,3-c]pyrimidin-3-one], the Ki in assay [1] is above 3980 nM; in assay [2], 63.1 nM.
As for `Cc1cc(-c2c(-c3ccc(F)cc3)nc(N)n3c(=O)n(Cc4ccc(F)c(N)n4)nc23)cc(CO)n1` [Example 1-60, 5-amino-2-[(6-amino-5-fluoro-2-pyridyl)methyl]-7-(4-fluorophenyl)-8-[2-(hydroxymethyl)-6-methyl-4-pyridyl]-[1,2,4]triazolo[4,3-c]pyrimidin-3-one], the values for the Ki in assay [1] and in assay [2] were 794 nM and 1.58 nM, respectively.
With `Cc1cc(-c2c(-c3ccccc3)nc(N)n3c(=O)n(Cc4ncc(F)cc4Cl)nc23)cc(CO)n1` [Example 1-50, 5-amino-2-[(3-chloro-5-fluoro-2-pyridyl)methyl]-8-[2-(hydroxymethyl)-6-methyl-4-pyridyl]-7-phenyl-[1,2,4]triazolo[4,3-c]pyrimidin-3-one], the Ki in assay [1] was 200 nM; in assay [2], 1 nM.
Turning to `CCOC(=O)NCCn1nc2c(-c3cc(C)nc(C)c3)c(-c3ccccc3)nc(N)n2c1=O` [Example 2-12, ethyl N-[2-[5-amino-8-(2,6-dimethyl-4-pyridyl)-3-oxo-7-phenyl-[1,2,4]triazolo[4,3-c]pyrimidin-2-yl]ethyl]carbamate], the Ki in assay [1] was 501 nM; in assay [2], 10 nM.
For `Cc1cc(-c2c(-c3ccccc3)nc(N)n3c(=O)n(Cc4ccccc4CC4CCNCC4)nc23)cc(C)n1` [Example 1-32, 5-amino-8-(2,6-dimethyl-4-pyridyl)-7-phenyl-2-[[2-(4-piperidylmethyl)phenyl]methyl]-[1,2,4]triazolo[4,3-c]pyrimidin-3-one], the Ki was 3.98 nM in assay [1] and 0.126 nM in assay [2].
As for `COc1ccc(Cn2nc3c(-c4cc(C)nc(Cl)c4)c(-c4ccccc4)nc(N)n3c2=O)nc1` [Example 1-77, 5-amino-8-(2-chloro-6-methyl-4-pyridyl)-2-[(5-methoxy-2-pyridyl)methyl]-7-phenyl-[1,2,4]triazolo[4,3-c]pyrimidin-3-one], the Ki was 200 nM in assay [1] and 0.398 nM in assay [2].
In the case of `Cc1cc(-c2c(-c3ccc(F)cc3)nc(N)n3c(=O)n(CCc4ccccc4)nc23)cc(C)n1` [Example 1-87, 5-amino-8-(2,6-dimethyl-4-pyridyl)-7-(4-fluorophenyl)-2-(2-phenylethyl)-[1,2,4]triazolo[4,3-c]pyrimidin-3-one], the Ki in assay [1] was 501 nM; in assay [2] it was 15.8 nM.
For `Cc1cc(-c2c(-c3ccccc3)nc(N)n3c(=O)n(C(C)Cc4ccccc4)nc23)cc(C)n1` (stereo not shown) [Example 1-81, 5-amino-8-(2,6-dimethyl-4-pyridyl)-2-(1-methyl-2-phenyl-ethyl)-7-phenyl-[1,2,4]triazolo[4,3-c]pyrimidin-3-one], the Ki is 631 nM in assay [1] and 25.1 nM in assay [2].
The corresponding values for `CNC(=O)c1cc(NCCn2nc3c(-c4cc(C)nc(C)c4)c(-c4ccccc4)nc(N)n3c2=O)ccc1Cl` [Example 1-91, 5-[2-[5-amino-8-(2,6-dimethyl-4-pyridyl)-3-oxo-7-phenyl-[1,2,4]triazolo[4,3-c]pyrimidin-2-yl]ethylamino]-2-chloro-N-methyl-benzamide] are 1000 nM and 39.8 nM.
Consider `Cc1cc(-c2c(-c3ccc(C#N)cc3)nc(N)n3c(=O)n(CCC(F)(F)F)nc23)cc(C)n1` [Example 2-36, 4-[5-amino-8-(2,6-dimethyl-4-pyridyl)-3-oxo-2-(3,3,3-trifluoropropyl)-[1,2,4]triazolo[4,3-c]pyrimidin-7-yl]benzonitrile], for which the values for the Ki in assay [1] and in assay [2] were above 3160 nM and 20 nM, respectively.
Consider `COC(=O)c1cc(-c2c(-c3ccccc3)nc(N)n3c(=O)n(CCC(F)(F)F)nc23)cc(C)n1` [Example 2-52, methyl 4-[5-amino-3-oxo-7-phenyl-2-(3,3,3-trifluoropropyl)-[1,2,4]triazolo[4,3-c]pyrimidin-8-yl]-6-methyl-pyridine-2-carboxylate], for which the Ki in assay [1] was 200 nM; in assay [2], 0.631 nM.
